Results: patent US20240067632A1, “WEE1 Degrading Compounds and Uses Thereof” (Bristol-Myers Squibb Company, priority 2022, published 2024)
Like-named read-outs stand apart in the source and are kept apart here.

Assays:
[1] = test system: MKN45 cells; assay: MKN45 cell proliferation assay (Cell-Titer-Glo, 120 h); assay type: cell-based; settings: for EC50: Homo sapiens, MKN-45, 120 h, Cell-Titer-Glo, read-out: MKN45 Cell Prolif. 120 hr (EC50); for MKN45 Cell Prolif. 120 hr (Ymin-Obs): minimal percent of DMSO control observed in the concentrations tested
Method in brief: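 Growth inhibition was read as blank-corrected Cell-Titer-Glo luminescence expressed as percent DMSO control after 120 h at 37 C, 400 cells/well. Compounds tested in triplicate as 10-point half-log series from 1 or 10 uM, 0.1% DMSO; four-parameter fit gave EC50, and lowest observed percent control was reported as Ymin-obs.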

[2] = target: T1, WEE1 (Homo sapiens, UniProt P30291+Q96SW2); assay: WEE1-ePL degradation assay (LentiX-WEE1-ePL-GSPT1-ND cells, InCELL Hunter luminescence, 4 h); assay type: cell-based; settings: 293T-LentiX WEE1-ePL cells; for DC50: read-out: 293T-LentiX WEE1-ePL Degradation 4 hr (EC50)
T1 construct: C-terminal ePL-tagged (DiscoverX, Fremont, CA) full-length WEE1 expression construct; expressed in transfected cells; host or cells: LentiX-HEK293T (Invitrogen), lentiviral transduction; co-expressing GSPT1-GN (G576N, lacking the first 158 amino acids)
Method in brief: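 Luminescent readout (InCELL Hunter, 30 min RT) of WEE1-ePL levels in transduced HEK293T cells after 4 h compound exposure at 37 °C. Dosing: 10 points, 3-fold steps, top 1 uM or 10 uM. EC50 from four-parameter logistic fit; Ymax set by DMSO.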

[3] = lower limit of the fit (Ymin=0 luciferase inhibitor, Ymax DMSO control)

Compound	EC50 [1] [nM]	293T-LentiX WEE1-ePL Degradation 4 hr (Ymin) [2, 3]	DC50 [2] [nM]	EC50 ([1]; growth inhibition) [nM]	293T-LentiX WEE1-ePL Degradation 4 hr (Ymin) ([2]; lower limit of the fit (0 = luciferase inhibitor, Ymax = DMSO control))	MKN45 Cell Prolif. 120 hr (Ymin-Obs) [1]
O=C1CC[C@H](N2Cc3cc(O[C@H]4CCN(Cc5cc(Cl)c6nc(C7CCOCC7)ccc6c5)C4)ccc3C2=O)C(=O)N1 [(3S)-3-(5-{[(3S)-1-{[8-chloro-2-(oxan-4-yl)quinolin-6-yl]methyl}pyrrolidin-3-yl]oxy}-1-oxo-2,3-dihydro-1H-isoindol-2-yl)piperidine-2,6-dione]	4.44	29.99	1.1	–	–	10.22
O=C1CC[C@H](N2Cc3cc(O[C@H]4CCN(Cc5cc(C6CC6)c6nc(N7CCOCC7)ncc6c5)C4)ccc3C2=O)C(=O)N1 [(3S)-3-(5-{[(3S)-1-{[8-cyclopropyl-2-(morpholin-4-yl)quinazolin-6-yl]methyl}pyrrolidin-3-yl]oxy}-1-oxo-2,3-dihydro-1H-isoindol-2-yl)piperidine-2,6-dione]	2.28	42.1	2.5	–	–	2.136
O=C1CC[C@H](N2Cc3cc(O[C@H]4CCN(Cc5cc(F)c6nc(C7CCOCC7)ccc6c5)C4)ccc3C2=O)C(=O)N1 [(3S)-3-(5-{[(3S)-1-{[8-fluoro-2-(oxan-4-yl)quinolin-6-yl]methyl}pyrrolidin-3-yl]oxy}-1-oxo-2,3-dihydro-1H-isoindol-2-yl)piperidine-2,6-dione]	–	–	1.45	2.29	29.02	8.43
C[C@@H]1CN(Cc2ccc3nc([C@@H]4CCOC(C)(C)C4)ccc3c2)C[C@H]1Oc1ccc2c(c1)CN([C@H]1CCC(=O)NC1=O)C2=O [(3S)-3-(5-{[(3S,4R)-1-({2-[(4R)-2,2-dimethyloxan-4-yl]quinolin-6-yl}methyl)-4-methylpyrrolidin-3-yl]oxy}-1-oxo-2,3-dihydro-1H-isoindol-2-yl)piperidine-2,6-dione]	0.424	24.64	1.15	–	–	8.113

Continued, in another order:

EC50 [1] [nM]	293T-LentiX WEE1-ePL Degradation 4 hr (Ymin) [2, 3]	DC50 [2] [nM]	EC50 ([1]; growth inhibition) [nM]	293T-LentiX WEE1-ePL Degradation 4 hr (Ymin) ([2]; lower limit of the fit (0 = luciferase inhibitor, Ymax = DMSO control))	Compound	MKN45 Cell Prolif. 120 hr (Ymin-Obs) [1]
0.16	54.54	2.58	–	–	O=C1CC[C@H](N2Cc3cc(O[C@H]4CCN(Cc5cc(C6CC6)c6nc(C7CCOCC7)ccc6c5)C4)ccc3C2=O)C(=O)N1 [(3S)-3-(5-{[(3S)-1-{[8-cyclopropyl-2-(oxan-4-yl)quinolin-6-yl]methyl}pyrrolidin-3-yl]oxy}-1-oxo-2,3-dihydro-1H-isoindol-2-yl)piperidine-2,6-dione]	3.047
7.59	32.63	3.13	–	–	O=C1CC[C@H](N2Cc3cc(O[C@H]4CCN(Cc5cc(F)c6nc(N7CCOCC7)ncc6c5)C4)ccc3C2=O)C(=O)N1 [(3S)-3-(5-{[(3S)-1-{[8-fluoro-2-(morpholin-4-yl)quinazolin-6-yl]methyl}pyrrolidin-3-yl]oxy}-1-oxo-2,3-dihydro-1H-isoindol-2-yl)piperidine-2,6-dione]	10.25
13.4	33.6	27.6	–	–	O=C1CC[C@H](N2Cc3cc(O[C@H]4CCN(Cc5cc(F)c6nc(C7CCOCC7)ncc6c5)C4)ccc3C2=O)C(=O)N1 [(3S)-3-(5-{[(3S)-1-{[8-fluoro-2-(oxan-4-yl)quinazolin-6-yl]methyl}pyrrolidin-3-yl]oxy}-1-oxo-2,3-dihydro-1H-isoindol-2-yl)piperidine-2,6-dione]	9.241
1.44	24.63	3.51	–	–	C[C@@H]1CN(Cc2ccc3nc([C@H]4CCOC(C)(C)C4)ccc3c2)C[C@H]1Oc1ccc2c(c1)CN([C@H]1CCC(=O)NC1=O)C2=O [(3S)-3-(5-{[(3S,4R)-1-({2-[(4S)-2,2-dimethyloxan-4-yl]quinolin-6-yl}methyl)-4-methylpyrrolidin-3-yl]oxy}-1-oxo-2,3-dihydro-1H-isoindol-2-yl)piperidine-2,6-dione]	9.434
